Source: patent US20240139216A1, “STABLE ORAL CANNABIDIOL COMPOSITIONS” (CARDIOL THERAPEUTICS INC., priority 2020, published 2024)

Key:
[1] = target: CB2 receptor (Homo sapiens, UniProt P34972); settings: Proc Natl Acad Sci USA 2008; 105(26):9099-104; cited from earlier work
[2] = Solubility of CBD in BCP; format: physicochemical; settings: in 1 mL of BCP
Method: For example, at least 300 mg of CBD can be dissolved in 1 mL of BCP. The enhanced stability of the CBD provides a composition with an acceptable shelf life and which can provide consistency in dosing and enhanced safety.

Chain of CB2 receptor (P34972 whole entry): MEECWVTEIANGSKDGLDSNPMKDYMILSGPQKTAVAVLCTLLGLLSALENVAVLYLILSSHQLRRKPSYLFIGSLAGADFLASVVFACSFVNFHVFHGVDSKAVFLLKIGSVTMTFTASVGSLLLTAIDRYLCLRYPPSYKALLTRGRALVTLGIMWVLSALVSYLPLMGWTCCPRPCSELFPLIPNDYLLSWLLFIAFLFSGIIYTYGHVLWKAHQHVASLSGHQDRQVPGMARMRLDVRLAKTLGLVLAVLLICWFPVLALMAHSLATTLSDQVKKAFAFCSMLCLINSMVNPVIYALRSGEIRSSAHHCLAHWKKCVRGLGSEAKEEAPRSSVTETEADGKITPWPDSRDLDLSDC

SMILES | binding to the CB2 receptor [1] | functional activity at the CB2 receptor [1] | amount of CBD that can be dissolved in BCP [2]
C=C1CC/C=C(\C)CC[C@@H]2[C@@H]1CC2(C)C (relative stereo) [β-caryophyllene, trans-(1R,9S)-8-Methylene-4,11,11-trimethylbicyclo[7.2.0]undec-4-ene] | selectively binds to the CB2 receptor | functional CB2 agonist | –
C=C(C)[C@@H]1CCC(C)=C[C@H]1c1c(O)cc(CCCCC)cc1O [CBD, cannabidiol] | – | – | at least 300 mg
